Measured values: patent US9255101B2 (BIOPROJECT, priority 2012, dated 2016)
Structures can show the parent of a compound that is named as a salt.

What was measured:
[1] = target: T1, human H4 receptor (Homo sapiens, UniProt Q9H3N8); experiment: biochemical
[2] = target: T1, human H4 receptor; experiment: biochemical; remark: listed apart in the source
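Throughout, for IC50: membranes from SH-SY5Y cells with stable human H4 receptor expression, incubated with GDP 10 µM, radioactivity retained on filters counted by liquid scintillation.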
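Throughout, for Ki: radioligand displacement of a [3H]-labelled ligand from membranes of CHO cells stably expressing human H4 receptor, bound radioactivity counted on filters by liquid scintillation.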

| Ki [1] [nM] | IC50 [2] [nM] | SMILES |
| --- | --- | --- |
| < 30 | < 30 | CN1CCC(OC2c3ccccc3CCn3cc(-c4ccc(C#N)cc4)nc32)CC1 (centres unmarked) [Example 37, 4-[4-(1-methylpiperidin-4-yloxy)-9,10-dihydro-4H-3,10a-diaza-benzo[f]azulen-2-yl]-benzonitrile] |
| < 300 | < 30 | CN1CCC(OC2c3ccccc3CCn3cc(CCc4ccccc4)nc32)CC1 (centres unmarked) [Example 38, 4-(1-methylpiperidin-4-yloxy)-2-phenethyl-9,10-dihydro-4H-3,10a-diaza-benzo[f]azulene oxalate] |
| < 30 | < 300 | CCCCc1ccc(-c2cn3c(n2)C(OC2CCN(C)CC2)c2ccccc2CC3)cc1 (centres unmarked) [Example 41, 2-(4-butylphenyl)-4-(1-methylpiperidin-4-yloxy)-9,10-dihydro-4H-3,10a-diaza-benzo[f]azulene oxalate] |
| < 30 | < 30 | CCCCCc1ccc(-c2cn3c(n2)C(OC2CCN(C)CC2)c2ccccc2CC3)cc1 (centres unmarked) [Example 42, 4-(1-methylpiperidin-4-yloxy)-2-(4-pentylphenyl)-9,10-dihydro-4H-3,10a-diaza-benzo[f]azulene] |
| < 300 | < 300 | CCCCCCc1ccc(-c2cn3c(n2)C(OC2CCN(C)CC2)c2ccccc2CC3)cc1 (centres unmarked) [Example 43, 2-(4-hexylphenyl)-4-(1-methylpiperidin-4-yloxy)-9,10-dihydro-4H-3,10a-diaza-benzo[f]azulene] |
| < 30 | < 30 | CCSc1ccc(-c2cn3c(n2)C(OC2CCN(C)CC2)c2ccccc2CC3)cc1 (centres unmarked) [Example 46, 2-(4-ethylsulfanylphenyl)-4-(1-methylpiperidin-4-yloxy)-9,10-dihydro-4H-3,10a-diaza-benzo[f]azulene oxalate] |
| < 300 | < 300 | CN1CCC(OC2c3ccccc3CCn3cc(-c4cccs4)nc32)CC1 (centres unmarked) [Example 47, 4-(1-methylpiperidin-4-yloxy)-2-thiophen-2-yl-9,10-dihydro-4H-3,10a-diaza-benzo[f]azulene oxalate] |
| < 30 | < 300 | CN1CCC(OC2c3ccccc3CCn3cc(-c4ccc(NC(=O)OC(C)(C)C)cc4)nc32)CC1 (centres unmarked) [Example 49, {4-[4-(1-methylpiperidin-4-yloxy)-9,10-dihydro-4H-3,10a-diaza-benzo[f]azulen-2-yl]-phenyl}-carbamic acid tert-butyl ester] |
| < 30 | < 1000 | CN1CCC(OC2c3ccccc3CCn3cc(-c4ccc5c(c4)OCO5)nc32)CC1 (centres unmarked) [Example 50, 2-benzo[1,3]dioxol-5-yl-4-(1-methylpiperidin-4-yloxy)-9,10-dihydro-4H-3,10a-diaza-benzo[f]azulene] |
| < 30 | < 30 | CN1CCC(OC2c3ccccc3CCn3cc(-c4ccc(F)cc4)nc32)CC1 (centres unmarked) [Example 56, 2-(4-fluorophenyl)-4-(1-methylpiperidin-4-yloxy)-9,10-dihydro-4H-3,10a-diaza-benzo[f]azulene] |
| < 300 | < 300 | CN1CCC(OC2c3ccccc3CCn3cc(C4=CCCCC4)nc32)CC1 (centres unmarked) [Example 62, 2-cyclohex-1-enyl-4-(1-methylpiperidin-4-yloxy)-9,10-dihydro-4H-3,10a-diaza-benzo[f]azulene oxalate] |
| < 300 | < 30 | CN1CCC(OC2c3ccccc3CCn3cc(-c4ccc(C(C)(F)F)cc4)nc32)CC1 (centres unmarked) [Example 64, 2-[4-(1,1-difluoroethyl)-phenyl]-4-(1-methylpiperidin-4-yloxy)-9,10-dihydro-4H-3,10a-diaza-benzo[f]azulene oxalate] |
| < 300 | < 1000 | CN1CCC(OC2c3ccccc3CCn3cc(C4=CCCC4)nc32)CC1 (centres unmarked) [Example 65, 2-cyclopent-1-enyl-4-(1-methylpiperidin-4-yloxy)-9,10-dihydro-4H-3,10a-diaza-benzo[f]azulene] |
| < 300 | < 300 | CN1CCC(OC2c3ccccc3CCn3cc(SCc4ccccc4)nc32)CC1 (centres unmarked) [Example 67, 2-benzylsulfanyl-4-(1-methylpiperidin-4-yloxy)-9,10-dihydro-4H-3,10a-diaza-benzo[f]azulene oxalate] |
| < 30 | < 300 | CN1CCC(OC2c3ccccc3CCn3cc(-c4cccc(F)c4)nc32)CC1 (centres unmarked) [Example 68, 2-(3-fluorophenyl)-4-(1-methylpiperidin-4-yloxy)-9,10-dihydro-4H-3,10a-diaza-benzo[f]azulene oxalate] |
| < 30 | < 300 | CN1CCC(OC2c3ccccc3CCn3cc(-c4ccc(C(F)F)cc4)nc32)CC1 (centres unmarked) [Example 69, 2-(4-difluoromethylphenyl)-4-(1-methylpiperidin-4-yloxy)-9,10-dihydro-4H-3,10a-diaza-benzo[f]azulene] |
| < 300 | < 300 | C=C(C)Cc1cn2c(n1)C(OC1CCN(C)CC1)c1ccccc1CC2 (centres unmarked) [Example 70, 2-(2-methyl-allyl)-4-(1-methylpiperidin-4-yloxy)-9,10-dihydro-4H-3,10a-diaza-benzo[f]azulene oxalate] |

| Ki [1] [nM] | IC50 [2] [nM] | SMILES |
| --- | --- | --- |
| < 30 | < 30 | CN1CCC(OC2c3ccccc3CCn3cc(C#CCNC(=O)OC(C)(C)C)nc32)CC1 (centres unmarked) [Example 72, {3-[4-(1-methylpiperidin-4-yloxy)-9,10-dihydro-4H-3,10a-diaza-benzo[f]azulen-2-yl]-prop-2-ynyl}-carbamic acid tert-butyl ester] |
| < 300 | < 30 | Cc1ccc(-c2cn3c(n2)C(OC2CCN(C)CC2)c2ccccc2CC3)c(Cl)c1 (centres unmarked) [Example 75, 2-(2-chloro-4-methylphenyl)-4-(1-methylpiperidin-4-yloxy)-9,10-dihydro-4H-3,10a-diaza-benzo[f]azulene oxalate] |
| < 30 | < 300 | CN1CCC(OC2c3ccccc3CCn3cc(C=CCc4ccccc4)nc32)CC1 (centres unmarked) [Example 76, 4-(1-methylpiperidin-4-yloxy)-2-(3-phenylpropenyl)-9,10-dihydro-4H-3,10a-diaza-benzo[f]azulene oxalate] |
| < 30 | < 300 | CN1CCC(OC2c3ccccc3CCn3cc(-c4cccc(Cl)c4)nc32)CC1 (centres unmarked) [Example 77, 2-(3-chlorophenyl)-4-(1-methylpiperidin-4-yloxy)-9,10-dihydro-4H-3,10a-diaza-benzo[f]azulene oxalate] |
| < 300 | < 1000 | CN1CCC(OC2c3cccc(Br)c3CCn3cc(I)nc32)CC1 (centres unmarked) [Example 79, 8-bromo-2-iodo-4-(1-methylpiperidin-4-yloxy)-9,10-dihydro-4H-3,10a-diaza-benzo[f]azulene] |
| < 30 | < 300 | CN1CCC(OC2c3ccccc3CCn3cc(C4=CCCCCC4)nc32)CC1 (centres unmarked) [Example 80, 2-cyclohept-1-enyl-4-(1-methylpiperidin-4-yloxy)-9,10-dihydro-4H-3,10a-diaza-benzo[f]azulene] |
| < 300 | < 30 | Cc1ccc(-c2cn3c(n2)C(OC2CCN(C)CC2)c2ccccc2CC3)c(F)c1 (centres unmarked) [Example 82, 2-(2-fluoro-4-methylphenyl)-4-(1-methylpiperidin-4-yloxy)-9,10-dihydro-4H-3,10a-diaza-benzo[f]azulene] |
| < 300 | < 30 | CN1CCC(OC2c3ccccc3CCn3cc(SC4CCCC4)nc32)CC1 (centres unmarked) [Example 86, 2-cyclopentylsulfanyl-4-(1-methylpiperidin-4-yloxy)-9,10-dihydro-4H-3,10a-diaza-benzo[f]azulene oxalate] |
| < 30 | < 30 | CN1CCC(OC2c3ccccc3CCn3cc(CCCc4ccccc4)nc32)CC1 (centres unmarked) [Example 87, 4-(1-methylpiperidin-4-yloxy)-2-(3-phenylpropyl)-9,10-dihydro-4H-3,10a-diaza-benzo[f]azulene oxalate] |
| < 300 | < 1000 | CN1CCC(OC2c3ccccc3CCn3cc(SCc4cccs4)nc32)CC1 (centres unmarked) [Example 88, 4-(1-methylpiperidin-4-yloxy)-2-(thiophen-2-ylmethylsulfanyl)-9,10-dihydro-4H-3,10a-diaza-benzo[f]azulene oxalate] |
| < 30 | < 30 | CN1CCC(OC2c3ccccc3CCn3cc(CCCCCc4ccccc4)nc32)CC1 (centres unmarked) [Example 90, 4-(1-methylpiperidin-4-yloxy)-2-(5-phenylpentyl)-9,10-dihydro-4H-3,10a-diaza-benzo[f]azulene oxalate] |
| < 30 | < 30 | CN1CCC(OC2c3ccccc3CCn3cc(C=CC(C)(C)C)nc32)CC1 (centres unmarked) [Example 93, 2-(3,3-dimethylbut-1-enyl)-4-(1-methylpiperidin-4-yloxy)-9,10-dihydro-4H-3,10a-diaza-benzo[f]azulene] |
| < 30 | < 30 | CN1CCC(OC2c3ccccc3CCn3cc(CCC(C)(C)C)nc32)CC1 (centres unmarked) [Example 94, 2-(3,3-dimethylbutyl)-4-(1-methylpiperidin-4-yloxy)-9,10-dihydro-4H-3,10a-diaza-benzo[f]azulene] |
| < 30 | < 30 | CN1CCC(OC2c3ccccc3CCn3cc(-c4ccc(N(C)C(=O)OC(C)(C)C)cc4)nc32)CC1 (centres unmarked) [Example 97, methyl-{4-[4-(1-methylpiperidin-4-yloxy)-9,10-dihydro-4H-3,10a-diaza-benzo[f]azulen-2-yl]-phenyl}-carbamic acid tert-butyl ester oxalate] |
| < 300 | < 300 | CN1CCC(OC2c3ccccc3CCn3cc(C=CC4CC4)nc32)CC1 (centres unmarked) [Example 99, 2-(2-cyclopropylvinyl)-4-(1-methylpiperidin-4-yloxy)-9,10-dihydro-4H-3,10a-diaza-benzo[f]azulene oxalate] |
| < 30 | < 30 | Cc1c(-c2ccccc2)nc2n1CCc1ccccc1C2OC1CCN(C)CC1 (centres unmarked) [Example 103, 1-Methyl-4-(1-methyl-piperidin-4-yloxy)-2-phenyl-9,10-dihydro-4H-3,10a-diaza-benzo[f]azulene] |

| SMILES | Ki [1] [nM] | IC50 [2] [nM] |
| --- | --- | --- |
| CN1CCC(OC2c3ccccc3CCn3cc(C4=CCN(C(=O)OC(C)(C)C)CC4)nc32)CC1 (centres unmarked) [Example 74, 4-[4-(1-methylpiperidin-4-yloxy)-9,10-dihydro-4H-3,10a-diaza-benzo[f]azulen-2-yl]-3,6-dihydro-2H-pyridine-1-carboxylic acid tert-butyl ester oxalate] | < 300 | < 300 |
